Assay results published in US4287186A, “Antibiotics, a process for their preparation and their use as plant protection agents” (Bayer Aktiengesellschaft, priority 1979, dated 1981).

Legend:
[1] = test system: Megoura viciae (vetch aphid); settings: in vivo
Experimental: The tests with Megoura viciae were carried out on potted field bean plants (Vicia faba, variety "Saxa") under laboratory conditions. The test animals were transferred to the test plants only after the plants had been treated and the spray coating had dried on. The tests were as a rule evaluated 5 days after the start of the test, calculated from the time at which the test animals were introduced.

[2] = assay type: physicochemical
From the text: (e) Thin layer chromatography: Three ninhydrin-positive spots, of which, in each case, only one spot corresponds to the substances which is active in the bioautogram, are found in all the solvent systems used which contain acetic acid. This fact could be ascribed to the lability of the antibiotic in acetic acid solution. In neutral solvent systems, only one ninhydrin-positive spot is found in each case.

Substance: Nikkomycin
- mortality of the larvae which had developed normally during the ecdysis stages [1]: more than 90%
- stability in acetic acid solution [2]: lability
